Laboratory results as given in ChEMBL document CHEMBL5537115, “New broad-spectrum and potent antibacterial agents with dual-targeting mechanism: Promoting FtsZ polymerization and disrupting bacterial membranes” (Eur J Med Chem, 2024).
Values after ≈ are worked out from the molar mass of the structure shown. Active and inactive are the calls of the source. The rule behind the calls is not given here.

How the values were obtained:
Staphylococcus aureus [1] = test: Induction of resistance development in Staphylococcus aureus ATCC25923 assessed as fold increase in MIC at 0.5 times MIC measured after 32 days by multi-passage resistance assay relative to control; format: functional; settings: time 32.0 day
Escherichia coli [2] = test: Antibacterial activity against penicillin-susceptible Escherichia coli ATCC25922 assessed as bacterial growth inhibition incubated for 20 hrs by CLSI based broth microdilution method; format: functional
Acinetobacter baumannii [3] = test: Antibacterial activity against Acinetobacter baumannii ATCC19606 assessed as bacterial growth inhibition incubated for 20 hrs by CLSI based broth microdilution method; format: functional
Staphylococcus aureus [4] = test: Antibacterial activity against erythromycin-susceptible Staphylococcus aureus ATCC25923 assessed as bacterial growth inhibition incubated for 20 hrs by CLSI based broth microdilution method; format: functional
Streptococcus pyogenes [5] = test: Antibacterial activity against erythromycin-susceptible Streptococcus pyogenes 1 assessed as bacterial growth inhibition incubated for 20 hrs by CLSI based broth microdilution method; format: functional
Bacillus pumilus = test: Antibacterial activity against penicillin-susceptible Bacillus pumilus CMCC63202 assessed as bacterial growth inhibition incubated for 20 hrs by CLSI based broth microdilution method; format: functional
Staphylococcus aureus [6] = test: Antibacterial activity against methicillin-resistant Staphylococcus aureus ATCC43300 assessed as bacterial growth inhibition incubated for 20 hrs by CLSI based broth microdilution method; format: functional
[7] = system: Staphylococcus epidermidis; test: Antibacterial activity against penicillin-resistant Staphylococcus epidermidis clinical isolate assessed as bacterial growth inhibition incubated for 20 hrs by CLSI based broth microdilution method; format: functional
Enterococcus faecalis [8] = test: Antibacterial activity against vancomycin-resistant Enterococcus faecalis ATCC51299 assessed as bacterial growth inhibition incubated for 20 hrs by CLSI based broth microdilution method; format: functional
Escherichia coli [9] = test: Antibacterial activity against wild-type Escherichia coli BW25113 assessed as bacterial growth inhibition incubated for 20 hrs by CLSI based broth microdilution method; format: functional
Staphylococcus aureus [10] = test: Antibacterial activity against penicillin-resistant Staphylococcus aureus ATCC31007 assessed as bacterial growth inhibition incubated for 20 hrs by CLSI based broth microdilution method; format: functional
Streptococcus pyogenes [11] = test: Antibacterial activity against erythromycin-resistant Streptococcus pyogenes 2 clinical isolate assessed as bacterial growth inhibition incubated for 20 hrs by CLSI based broth microdilution method; format: functional
Staphylococcus aureus [12] = test: Antibacterial activity against Staphylococcus aureus clinical isolate assessed as bacterial growth inhibition incubated for 20 hrs by CLSI based broth microdilution method; format: functional
Enterococcus faecium [13] = test: Antibacterial activity against vancomycin-resistant Enterococcus faecium ATCC51559 assessed as bacterial growth inhibition incubated for 20 hrs by CLSI based broth microdilution method; format: functional
Staphylococcus aureus [14] = test: Disruption of inner membrane in Staphylococcus aureus ATCC25923 at 0.5 ug/ml measured after 12 mins by PI staining based analysis; format: functional, organism-based; settings: dose 0.5 µg/ml
Escherichia coli [15] = test: Disruption of outer membrane in Escherichia coli ATCC25922 at 16 ug/ml measured after 10 mins by NPN dye based analysis; format: functional, organism-based; settings: dose 16.0 µg/ml
Enterococcus faecalis [16] = test: Antibacterial activity against vancomycin-susceptible Enterococcus faecalis ATCC29212 assessed as bacterial growth inhibition incubated for 20 hrs by CLSI based broth microdilution method; format: functional
Staphylococcus aureus [17] = test: Effect on proton gradient of cytoplasmic membrane in Staphylococcus aureus ATCC25923 at 1 ug/ml measured after 20 mins by diSC35 dye based analysis; format: functional, organism-based; settings: Cytoplasm membrane, dose 1.0 µg/ml
Enterococcus faecium [18] = test: Antibacterial activity against vancomycin-susceptible Enterococcus faecium ATCC19434 assessed as bacterial growth inhibition incubated for 20 hrs by CLSI based broth microdilution method; format: functional
Bacillus subtilis [19] = test: Antibacterial activity against penicillin-susceptible Bacillus subtilis ATCC9372 assessed as bacterial growth inhibition incubated for 20 hrs by CLSI based broth microdilution method; format: functional
Klebsiella pneumoniae = test: Antibacterial activity against Klebsiella pneumoniae ATCC BAA-1902 assessed as bacterial growth inhibition incubated for 20 hrs by CLSI based broth microdilution method; format: functional
Staphylococcus aureus [20] = test: Antibacterial activity against Staphylococcus aureus clinical isolate incubated for 18 to 24 hrs; format: functional; settings: time 18-24 hrs
Acinetobacter baumannii [21] = test: Antibacterial activity against Acinetobacter baumannii ATCC19606 incubated for 18 to 24 hrs; format: functional; settings: time 18-24 hrs
Staphylococcus aureus [22] = test: Antibacterial activity against methicillin-resistant Staphylococcus aureus ATCC43300 incubated for 18 to 20 hrs; format: functional; settings: time 18-20 hrs
Staphylococcus aureus [23] = test: Antibacterial activity against erythromycin-susceptible Staphylococcus aureus ATCC25923 incubated for 18 to 24 hrs; format: functional; settings: time 18-24 hrs
Bacillus subtilis [24] = test: Antibacterial activity against penicillin-susceptible Bacillus subtilis ATCC9372 incubated for 18 to 24 hrs; format: functional; settings: time 18-24 hrs
Staphylococcus aureus [25] = test: Selectivity ratio of MBC for erythromycin-susceptible Staphylococcus aureus ATCC25923 to MIC for erythromycin-susceptible Staphylococcus aureus ATCC25923; format: functional
Bacillus subtilis [26] = test: Selectivity ratio of MBC for penicillin-susceptible Bacillus subtilis ATCC9372 to MIC for penicillin-susceptible Bacillus subtilis ATCC9372; format: functional
Acinetobacter baumannii [27] = test: Selectivity ratio of MBC for Acinetobacter baumannii ATCC19606 to MIC for Acinetobacter baumannii ATCC19606; format: functional
Staphylococcus aureus [28] = test: Selectivity ratio of MBC for Staphylococcus aureus clinical isolate to MIC for Staphylococcus aureus clinical isolate; format: functional
Staphylococcus aureus [29] = test: Selectivity ratio of MBC for methicillin-resistant Staphylococcus aureus ATCC43300 to MIC for methicillin-resistant Staphylococcus aureus ATCC43300; format: functional

Row | Compound | MIC (Escherichia coli [2]) [µg/mL] | MIC (Acinetobacter baumannii [3]) [µg/mL] | MIC (Staphylococcus aureus [4]) [µg/mL] | MIC (Streptococcus pyogenes [5]) [µg/mL] | MIC (Bacillus pumilus) [µg/mL] | MIC (Staphylococcus aureus [6]) [µg/mL] | MIC [7] [µg/mL] | MIC (Enterococcus faecalis [8]) [µg/mL] | MIC (Escherichia coli [9]) [µg/mL] | MIC (Staphylococcus aureus [10]) [µg/mL] | MIC (Streptococcus pyogenes [11]) [µg/mL] | MIC (Staphylococcus aureus [12]) [µg/mL] | MIC (Enterococcus faecium [13]) [µg/mL] | MIC (Enterococcus faecalis [16]) [µg/mL] | Activity (Staphylococcus aureus [17]) | MIC (Enterococcus faecium [18]) [µg/mL] | MIC (Bacillus subtilis [19]) [µg/mL] | MIC (Klebsiella pneumoniae) [µg/mL] | MBC (Staphylococcus aureus [20]) [µg/mL] | MBC (Acinetobacter baumannii [21]) [µg/mL] | further results
1 | CO[C@H]1/C=C/O[C@@]2(C)Oc3c(C)c(O)c4c(O)c(c(/C=N/N5CCN(C)CC5)c(O)c4c3C2=O)NC(=O)/C(C)=C\C=C\[C@H](C)[C@H](O)[C@@H](C)[C@@H](O)[C@@H](C)[C@H](OC(C)=O)[C@@H]1C | – | – | – | – | – | – | – | – | – | – | – | – | – | – | – | – | – | – | – | – | fold change (FC) (Staphylococcus aureus [1]): 8192
2 | C[n+]1cc(-c2ccccc2)c(/C=C/c2ccc(C(C)(C)C)cc2)cc1-c1ccccc1.[I-] | 8 | 4 | 0.25 | 2 | 2 | 0.5 | 2 | 4 | 8 | 4 | 2 | 0.5 | 2 | 4 | inactive | 4 | 0.5 | 32 | – | – | Activity (Staphylococcus aureus [14]): Active; Activity (Escherichia coli [15]): Active
3 | C[n+]1cc(-c2ccccc2)c(/C=C/c2ccccc2)cc1-c1ccc(C(C)(C)C)cc1 | – | – | – | – | – | – | – | – | – | – | – | – | – | – | inactive | – | – | – | – | – | Activity (Staphylococcus aureus [14]): Active; Activity (Escherichia coli [15]): Active
4 | CC(=O)NC[C@H]1CN(c2ccc(N3CCOCC3)c(F)c2)C(=O)O1 [LINEZOLID] | > 64 | > 64 | – | 1 (≈ 2.96 µM) | 2 (≈ 5.93 µM) | – | 4 (≈ 11.9 µM) | – | > 64 | – | 1 (≈ 2.96 µM) | – | 4 (≈ 11.9 µM) | – | – | 8 (≈ 23.7 µM) | 0.5 (≈ 1.48 µM) | > 64 | > 64 | > 64 | MBC (Staphylococcus aureus [22]): 8 µg/mL (≈ 23.7 µM); MBC (Staphylococcus aureus [23]): > 64 µg/mL; MBC (Bacillus subtilis [24]): 64 µg/mL (≈ 190 µM)
5 | C[n+]1ccc(/C=C/c2ccccc2)c(-c2ccccc2)c1 | – | – | – | – | – | – | – | – | – | – | – | – | – | – | inactive | – | – | – | – | – | –
6 | C[n+]1cc2c3c(ccc2c2ccc4cc5c(cc4c21)OCO5)OCO3 | 32 | 64 | 4 | 2 | 4 | 8 | 8 | 32 | 64 | 16 | 2 | 8 | 32 | 16 | – | 64 | 4 | 64 | > 64 | > 64 | MBC (Staphylococcus aureus [22]): > 64 µg/mL; Ratio (Staphylococcus aureus [25]): >32; MBC (Staphylococcus aureus [23]): > 64 µg/mL; Ratio (Bacillus subtilis [26]): 16; MBC (Bacillus subtilis [24]): 64 µg/mL
7 | Cc1ccccc1-c1c[n+](C)c(-c2ccc(C(C)(C)C)cc2)cc1/C=C/c1ccc(N(C)C)cc1.[I-] | 4 | 1 | 0.125 | 2 | 0.5 | 0.5 | 1 | 2 | 2 | 1 | 2 | 0.25 | 0.5 | 2 | – | 1 | 0.5 | 16 | 1 | 2 | Ratio (Acinetobacter baumannii [27]): 2; MBC (Staphylococcus aureus [22]): 0.5 µg/mL; Ratio (Staphylococcus aureus [25]): 2; MBC (Staphylococcus aureus [23]): 0.25 µg/mL; Ratio (Staphylococcus aureus [28]): 4; Ratio (Bacillus subtilis [26]): 4; Ratio (Staphylococcus aureus [29]): 1; MBC (Bacillus subtilis [24]): 2 µg/mL
8 | Cc1cc(-c2ccccc2)[n+](C)cc1-c1ccccc1 | – | – | – | – | – | – | – | – | – | – | – | – | – | – | inactive | – | – | – | – | – | –
9 | CN(C)c1ccc(/C=C/c2cc(-c3ccc(C(C)(C)C)cc3)[n+](C)cc2-c2ccccc2)cc1.[I-] | 4 | 1 | 0.125 | 2 | 0.25 | 0.25 | 1 | 2 | 8 | 0.5 | 2 | 0.125 | 2 | 2 | – | 2 | 0.125 | 8 | 1 | 4 | Ratio (Acinetobacter baumannii [27]): 4; MBC (Staphylococcus aureus [22]): 1 µg/mL; Ratio (Staphylococcus aureus [25]): 8; MBC (Staphylococcus aureus [23]): 1 µg/mL; Ratio (Staphylococcus aureus [28]): 4; Ratio (Bacillus subtilis [26]): 16; MBC (Bacillus subtilis [24]): 2 µg/mL
10 | C[n+]1cc(-c2ccccc2)c(/C=C/c2ccc(N3CCCC3)cc2)cc1-c1ccc2ccccc2c1.[I-] | 64 | 1 | 0.5 | 0.5 | 1 | 0.5 | 2 | 2 | 4 | 1 | 1 | 0.5 | 2 | 2 | – | 1 | 1 | 16 | – | – | –
